# Results reported in patent US20100061928A1, “LABELLED ANALOGUES OF HALOBENZAMIDES AS RADIOPHARMACEUTICALS” (Institut National De La Sante et De La Recherche Medicale …, priority 2006, published 2010).
# Where a name gives a salt, the structure may show the parent alone.
# Columns and labels:
# [1] = system: tumour; assay: Dosimetry with regard to the tumour (MIRD programme, extrapolated to ^131I); details: for Effective period: extrapolated to 131I labelling; for Biological period: from biodistribution data
# [2] = Elimination of the molecules: cumulative urinary and faecal excretion 0-72 hours; assay type: in vivo, mouse; details: for Faecal elimination 0-72 hours (Faeces) / Urinary and faecal elimination 0-72 hours (Total) / Urinary elimination 0-72 hours (Urine): cumulative excretion 0-72 hours; for Faecal elimination 0-72 hours (Faeces) / Urinary elimination 0-72 hours (Urine): mice in metabolic cages; for Urinary and faecal elimination 0-72 hours (Total): urine + faeces; for elimination route (in words): urinary versus faecal, 0-72 hours
# [3] = system: grafted B16 F0 murine melanoma tumour; assay: Biodistribution of the ^125I-labelled molecules in the melanoma-bearing mouse (autoradiography of whole-body sections); details: for Concentration of radioactivity, B 16 (tumour), Mean / Concentration of radioactivity, Ic (intestinal contents), Mean / Concentration of radioactivity, Sc (stomach contents), Mean / Concentration of radioactivity, blood (measured in the heart cavity), Mean / Concentration of radioactivity, brain, Mean / Concentration of radioactivity, kidney, Mean / Concentration of radioactivity, liver, Mean / Concentration of radioactivity, lungs, Mean / Concentration of radioactivity, muscle (skeletal muscle), Mean / Concentration of radioactivity, pancreas, Mean / Concentration of radioactivity, spleen, Mean / Concentration of radioactivity, uvea (pigmented tissues of the eye), Mean: ^125I-labelled compound; for Biodistribution, Mean, B 16: B 16 tumour
smiles,measurement,setting,value
"CCN(CC)CCNC(=O)c1ccc2cc(I)ccc2n1.Cl.Cl [compound 31, N-(2-diethylaminoethyl)-6-iodoquinoline-2-carboxamide dihydrochloride]",Effective period,[1],31.8 h
same,Biological period,[1],38.0 hours
same,Faecal elimination 0-72 hours (Faeces),[2],11.4%
same,Urinary and faecal elimination 0-72 hours (Total),[2],91.2%
same,Urinary elimination 0-72 hours (Urine),[2],80.7%
same,elimination route (in words),[2],predominantly in the urine
same,"Concentration of radioactivity, B 16 (tumour), Mean",[3]; 1 H after i.v. administration,19.63 % ID/g
same,"Concentration of radioactivity, Ic (intestinal contents), Mean",[3]; 1 H after i.v. administration,15.78 % ID/g
same,"Concentration of radioactivity, Sc (stomach contents), Mean",[3]; 1 H after i.v. administration,48.03 % ID/g
same,"Concentration of radioactivity, blood (measured in the heart cavity), Mean",[3]; 1 H after i.v. administration,7.01 % ID/g
same,"Concentration of radioactivity, brain, Mean",[3]; 1 H after i.v. administration,1.96 % ID/g
same,"Concentration of radioactivity, kidney, Mean",[3]; 1 H after i.v. administration,11.82 % ID/g
same,"Concentration of radioactivity, liver, Mean",[3]; 1 H after i.v. administration,10.92 % ID/g
same,"Concentration of radioactivity, lungs, Mean",[3]; 1 H after i.v. administration,9.41 % ID/g
same,"Concentration of radioactivity, muscle (skeletal muscle), Mean",[3]; 1 H after i.v. administration,1.79 % ID/g
same,"Concentration of radioactivity, pancreas, Mean",[3]; 1 H after i.v. administration,9.80 % ID/g
same,"Concentration of radioactivity, spleen, Mean",[3]; 1 H after i.v. administration,11.56 % ID/g
same,"Concentration of radioactivity, uvea (pigmented tissues of the eye), Mean",[3]; 1 H after i.v. administration,32.71 % ID/g
same,"Concentration of radioactivity, B 16 (tumour), Mean",[3]; 3 H after i.v. administration,25.35 % ID/g
same,"Concentration of radioactivity, Ic (intestinal contents), Mean",[3]; 3 H after i.v. administration,20.65 % ID/g
same,"Concentration of radioactivity, Sc (stomach contents), Mean",[3]; 3 H after i.v. administration,34.72 % ID/g
same,"Concentration of radioactivity, blood (measured in the heart cavity), Mean",[3]; 3 H after i.v. administration,5.57 % ID/g
same,"Concentration of radioactivity, brain, Mean",[3]; 3 H after i.v. administration,0.83 % ID/g
same,"Concentration of radioactivity, kidney, Mean",[3]; 3 H after i.v. administration,12.59 % ID/g
same,"Concentration of radioactivity, liver, Mean",[3]; 3 H after i.v. administration,8.89 % ID/g
same,"Concentration of radioactivity, lungs, Mean",[3]; 3 H after i.v. administration,5.58 % ID/g
same,"Concentration of radioactivity, muscle (skeletal muscle), Mean",[3]; 3 H after i.v. administration,1.14 % ID/g
same,"Concentration of radioactivity, pancreas, Mean",[3]; 3 H after i.v. administration,6.17 % ID/g
same,"Concentration of radioactivity, spleen, Mean",[3]; 3 H after i.v. administration,10.63 % ID/g
same,"Concentration of radioactivity, uvea (pigmented tissues of the eye), Mean",[3]; 3 H after i.v. administration,33.10 % ID/g
same,"Concentration of radioactivity, B 16 (tumour), Mean",[3]; 6 H after i.v. administration,17.21 % ID/g
same,"Concentration of radioactivity, Ic (intestinal contents), Mean",[3]; 6 H after i.v. administration,23.36 % ID/g
same,"Concentration of radioactivity, Sc (stomach contents), Mean",[3]; 6 H after i.v. administration,65.36 % ID/g
same,"Concentration of radioactivity, blood (measured in the heart cavity), Mean",[3]; 6 H after i.v. administration,5.91 % ID/g
same,"Concentration of radioactivity, brain, Mean",[3]; 6 H after i.v. administration,0.37 % ID/g
same,"Concentration of radioactivity, kidney, Mean",[3]; 6 H after i.v. administration,7.60 % ID/g
same,"Concentration of radioactivity, liver, Mean",[3]; 6 H after i.v. administration,7.11 % ID/g
same,"Concentration of radioactivity, lungs, Mean",[3]; 6 H after i.v. administration,5.32 % ID/g
same,"Concentration of radioactivity, muscle (skeletal muscle), Mean",[3]; 6 H after i.v. administration,0.95 % ID/g
same,"Concentration of radioactivity, spleen, Mean",[3]; 6 H after i.v. administration,7.60 % ID/g
same,"Concentration of radioactivity, uvea (pigmented tissues of the eye), Mean",[3]; 6 H after i.v. administration,36.62 % ID/g
same,"Concentration of radioactivity, B 16 (tumour), Mean",[3]; 24 H after i.v. administration,12.13 % ID/g
same,"Concentration of radioactivity, Ic (intestinal contents), Mean",[3]; 24 H after i.v. administration,1.45 % ID/g
same,"Concentration of radioactivity, Sc (stomach contents), Mean",[3]; 24 H after i.v. administration,2.33 % ID/g
same,"Concentration of radioactivity, kidney, Mean",[3]; 24 H after i.v. administration,0.34 % ID/g
same,"Concentration of radioactivity, liver, Mean",[3]; 24 H after i.v. administration,2.25 % ID/g
same,"Concentration of radioactivity, lungs, Mean",[3]; 24 H after i.v. administration,0.53 % ID/g
same,"Concentration of radioactivity, spleen, Mean",[3]; 24 H after i.v. administration,2.66 % ID/g
same,"Concentration of radioactivity, uvea (pigmented tissues of the eye), Mean",[3]; 24 H after i.v. administration,22.27 % ID/g
same,"Concentration of radioactivity, B 16 (tumour), Mean",[3]; 72 H after i.v. administration,5.93 % ID/g
same,"Concentration of radioactivity, liver, Mean",[3]; 72 H after i.v. administration,1.23 % ID/g
same,"Concentration of radioactivity, spleen, Mean",[3]; 72 H after i.v. administration,1.85 % ID/g
same,"Concentration of radioactivity, uvea (pigmented tissues of the eye), Mean",[3]; 72 H after i.v. administration,18.30 % ID/g
same,"tumour concentration, times higher than with BZA",[3]; at 72 hours (FIG. 1B),8 times
same,"tumour concentration, % of the injected dose per gram of tumour",[3]; from the first hour,19.6 % ID/g
"CCN(CC)CCNC(=O)c1c[nH]c2ccc(I)cc2c1=O [compound 35, N-(2-diethylaminoethyl)-1,4-dihydro-6-iodo-4-oxoquinoline-3-carboxamide dihydrochloride]",Effective period,[1],49.4 h
same,Biological period,[1],66.3 hours
same,Faecal elimination 0-72 hours (Faeces),[2],69.2%
same,Urinary and faecal elimination 0-72 hours (Total),[2],93.0%
same,Urinary elimination 0-72 hours (Urine),[2],23.8%
same,elimination route (in words),[2],faecal route predominates
same,"Biodistribution, Mean, B 16",[3]; 1 H,4.69
same,"Biodistribution, Mean, B 16",[3]; 3 H,4.05
same,"Biodistribution, Mean, B 16",[3]; 6 H,5.81
same,"Biodistribution, Mean, B 16",[3]; 24 H,2.74
same,"Biodistribution, Mean, B 16",[3]; 72 H,2.35
same,"Biodistribution, Mean, Ic",[3]; 1 H,52.94
same,"Biodistribution, Mean, Ic",[3]; 3 H,90.12
same,"Biodistribution, Mean, Ic",[3]; 6 H,61.06
same,"Biodistribution, Mean, Ic",[3]; 24 H,1.62
same,"Biodistribution, Mean, Ic",[3]; 72 H,0.70
same,"Biodistribution, Mean, Sc",[3]; 1 H,12.74
same,"Biodistribution, Mean, Sc",[3]; 3 H,9.93
same,"Biodistribution, Mean, Sc",[3]; 6 H,22.27
same,"Biodistribution, Mean, Sc",[3]; 24 H,0.13
same,"Biodistribution, Mean, blood",[3]; 1 H,0.42
same,"Biodistribution, Mean, blood",[3]; 3 H,0.23
same,"Biodistribution, Mean, blood",[3]; 6 H,0.17
same,"Biodistribution, Mean, blood",[3]; 24 H,0.22
same,"Biodistribution, Mean, brain",[3]; 1 H,0.07
same,"Biodistribution, Mean, brain",[3]; 6 H,0.08
same,"Biodistribution, Mean, brain",[3]; 24 H,0.04
same,"Biodistribution, Mean, brain",[3]; 72 H,0.10
same,"Biodistribution, Mean, kidney",[3]; 1 H,2.80
same,"Biodistribution, Mean, kidney",[3]; 3 H,0.80
same,"Biodistribution, Mean, kidney",[3]; 6 H,0.20
same,"Biodistribution, Mean, kidney",[3]; 24 H,0.03
same,"Biodistribution, Mean, liver",[3]; 1 H,5.16
same,"Biodistribution, Mean, liver",[3]; 3 H,1.84
same,"Biodistribution, Mean, liver",[3]; 6 H,0.32
same,"Biodistribution, Mean, liver",[3]; 24 H,0.07
same,"Biodistribution, Mean, lungs",[3]; 1 H,2.06
same,"Biodistribution, Mean, lungs",[3]; 3 H,0.88
same,"Biodistribution, Mean, lungs",[3]; 6 H,0.15
same,"Biodistribution, Mean, lungs",[3]; 24 H,0.04
same,"Biodistribution, Mean, muscle",[3]; 1 H,0.92
same,"Biodistribution, Mean, muscle",[3]; 3 H,0.13
same,"Biodistribution, Mean, muscle",[3]; 6 H,0.01
same,"Biodistribution, Mean, pancreas",[3]; 1 H,5.74
same,"Biodistribution, Mean, pancreas",[3]; 3 H,0.96
same,"Biodistribution, Mean, pancreas",[3]; 6 H,1.08
same,"Biodistribution, Mean, spleen",[3]; 1 H,1.24
same,"Biodistribution, Mean, spleen",[3]; 3 H,0.28
same,"Biodistribution, Mean, spleen",[3]; 6 H,0.26
same,"Biodistribution, Mean, spleen",[3]; 24 H,0.15
same,"Biodistribution, Mean, thyroid",[3]; 3 H,4.33
same,"Biodistribution, Mean, thyroid",[3]; 6 H,8.55
same,"Biodistribution, Mean, thyroid",[3]; 24 H,5.09
same,"Biodistribution, Mean, thyroid",[3]; 72 H,9.83
same,"Biodistribution, Mean, uvea",[3]; 1 H,5.12
same,"Biodistribution, Mean, uvea",[3]; 3 H,5.66
same,"Biodistribution, Mean, uvea",[3]; 6 H,5.18
same,"Biodistribution, Mean, uvea",[3]; 24 H,3.5
same,"Biodistribution, Mean, uvea",[3]; 72 H,6.79
